The text below walks through data of patent US9480259B2, “Pyrazolopyrans having herbicidal and pharmaceutical properties” (BASF SE, priority 2012, dated 2016).

pEC50: −log10 of the molar value.

As a reminder, the pEC50 is −log10 of the EC50, conventionally taken in molar units. Lower therefore signals a large EC50.

Test [1] deals with Arabidopsis thaliana SHMT. In words: SHMT activity assay (ED50 SHMT), coupled with N5,N10-CH2-THF dehydrogenase, NADH at 340 nm. Type of test: biochemical. Conditions: values given as upper bounds. Summed up:
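His-tagged SHMT purified on Ni-NTA. NADH formation followed at 340 nm for 30 min; ED50 from inhibition of initial velocity.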

The test system of test [2] is SETFA, AMARE, POLCO, CHEAL, GALAP. In words: Greenhouse herbicidal test, post-emergence, weed panel. Type of test: in vivo. The settings on record: application rate 1 kg/ha, scale 0 to 100. The text has this:
(§1) The seeds of the test plants were sown separately for each species. For the post-emergence treatment, the test plants were first grown to a height of 2 to 5 cm, depending on the plant habit, and only then treated with the active ingredients which had been suspended or emulsified in water. For this purpose, the test plants were either sown directly and grown in the same containers, or they were first grown separately as seedlings and transplanted into the test containers a few days prior to treatment. Depending on the species, the plants were kept at 10-25° C. or 20-35° C. The test period extended over 8 to 9 days. During this time, the plants were tended, and their response to the individual treatments was evaluated. Evaluation was carried out using a scale from 0 to 100. 100 means no emergence of the plants, or complete destruction of at least the aerial moieties, and 0 means no damage, or normal course of growth. A good herbicidal activity is given at values of at least 70 and a very good herbicidal activity is given at values of at least 85. The plants used in the greenhouse experiments belonged to the following species: [table]

Test [3] concerns CHEAL (Chenopodium album). In words: Greenhouse herbicidal test, post-emergence, CHEAL. Type of test: in vivo. The settings on record: application rate 1 kg/ha; for herbicidal activity against CHEAL: scale 0 to 100; for pest or weed control at 1000 g/ha: Chenopodium album, scale 0 to 100, read-out: herbicidal activity against CHEAL.
Description: as §1

Test [4] relates to AMARE (Amaranthus retroflexus). In words: Greenhouse herbicidal test, post-emergence, AMARE. It counts as in vivo. Conditions: application rate 1 kg/ha; for herbicidal activity against AMARE: scale 0 to 100; for pest or weed control at 1000 g/ha: Amaranthus retroflexus, scale 0 to 100, read-out: herbicidal activity against AMARE.
Description: as §1

Test [5] has as its system POLCO (Poligonum convolvulus). In words: Greenhouse herbicidal test, post-emergence, POLCO. Type of test: in vivo. Conditions: application rate 1 kg/ha; for herbicidal activity against POLCO: scale 0 to 100; for pest or weed control at 1000 g/ha: Poligonum convolvulus, scale 0 to 100, read-out: herbicidal activity against POLCO.
Description: as §1

The mark [6] stands for this setting: Table 2, Arabidopsis thaliana SHMT enzyme assay.

For `CCCC(=O)N(C)c1cc(C#N)cc(C2(C3CCC3)C(C#N)=C(N)Oc3[nH]nc(C)c32)c1` (stereo not drawn) [Compound 2.612], in test [1] (Table 2), the pEC50 is greater than 8.00. In test [2], the “herbicidal activity against at least three of the weeds SETFA, AMARE, POLCO, CHEAL, GALAP” value (shortened to “herbicidal activity against … GALAP”) was “good or very good”.
Take `Cc1n[nH]c2c1C(c1cc(C(N)=S)cc(C(F)(F)F)c1)(C1CCC1)C(C#N)=C(N)O2` (racemic) [Compound 2.409]: the “herbicidal activity against CHEAL” value in test [3] is “very good (a very good herbicidal activity is given at values of at least 85)”. Further, the “herbicidal activity against AMARE” value in test [4] is given as “good (A good herbicidal activity is given at values of at least 70)”. Moreover, the “herbicidal activity against POLCO” value in test [5] is listed as “very good (a very good herbicidal activity is given at values of at least 85)”. In addition, in test [2], the “herbicidal activity against … GALAP” value is on record as “good or very good”.
`Cc1n[nH]c2c1C(c1cc(C#N)cc(N(C)S(C)(=O)=O)c1)(C1CCC1)C(C#N)=C(N)O2` (stereo not drawn) [Compound 2.617] gave a pEC50 in test [1] (Table 2) greater than 8.00. Further, the pest or weed control at 1000 g/ha in test [3] and in test [4] was no less than 85% throughout. For the same compound, in test [2], the “herbicidal activity against … GALAP” value is “good or very good”.
With `Cc1n[nH]c2c1C(c1cc(C#N)cc(C#N)c1)(C1CCC1)C(C#N)=C(N)O2` (stereo not drawn) [Compound 2.283], in test [1] (setting [6]), the pEC50 was greater than 7.00. Also, the pest or weed control at 1000 g/ha in test [3], in test [4] and in test [5] was no less than 85% in each case. In test [2], the “herbicidal activity against … GALAP” value is reported as “good or very good”.
With `Cc1n[nH]c2c1C(c1cc(C#N)cc(C(F)(F)F)c1)(C1CC1)C(C#N)=C(N)O2` (stereo not drawn) [Compound 2.362], the pEC50 in test [1] (setting [6]) is greater than 8.00. Also, the pest or weed control at 1000 g/ha in test [3], in test [4] and in test [5] was no less than 85% each time. The “herbicidal activity against … GALAP” value in test [2] is recorded as “good or very good”.
Turning to `Cc1n[nH]c2c1C(c1cc(-c3nnnn3C)cc(C(F)(F)F)c1)(C1CCC1)C(C#N)=C(N)O2` (racemic) [Compound 2.399], the “herbicidal activity against CHEAL” value in test [3] is recorded as “very good (a very good herbicidal activity is given at values of at least 85)”. The “herbicidal activity against AMARE” value in test [4] was “very good (a very good herbicidal activity is given at values of at least 85)”. In test [5], the “herbicidal activity against POLCO” value is “good (A good herbicidal activity is given at values of at least 70)”. Further, the “herbicidal activity against … GALAP” value in test [2] is given as “good or very good”.
`Cc1n[nH]c2c1C(c1cc(C#N)cc(C#N)c1)(C(C)C)C(C#N)=C(N)O2` (stereo not drawn) [Compound 2.335]: the pEC50 in test [1] (setting [6]) was greater than 8.00. Besides, the pest or weed control at 1000 g/ha in test [3], in test [4] and in test [5] was no less than 85% in each case. Besides, the “herbicidal activity against … GALAP” value in test [2] is recorded as “good or very good”.
`Cc1n[nH]c2c1C(c1cc(C#N)cc(N(C)C(=O)CC#N)c1)(C1CCC1)C(C#N)=C(N)O2` (stereo not drawn) [Compound 2.635]: the pEC50 in test [1] (Table 2) was greater than 8.00. The pest or weed control at 1000 g/ha in test [3] and in test [4] was no less than 85% each time. In test [2], the “herbicidal activity against … GALAP” value is listed as “good or very good”.
Consider `COCCOCC(=O)N(C)c1cc(C#N)cc(C2(C3CCC3)C(C#N)=C(N)Oc3[nH]nc(C)c32)c1` (stereo not drawn) [Compound 2.616], for which, in test [1] (Table 2), the pEC50 was greater than 8.00. The pest or weed control at 1000 g/ha in test [3] and in test [4] was no less than 85% in each case. The “herbicidal activity against … GALAP” value in test [2] is “good or very good”.
As for `CC(=O)N(C)c1cc(C#N)cc(C2(C3CCC3)C(C#N)=C(N)Oc3[nH]nc(C)c32)c1` (racemic) [Compound 2.414], in test [2], the “herbicidal activity against … GALAP” value is recorded as “good or very good”.
On the same count and under the same terms, then `Cc1n[nH]c2c1C(c1cc(C#N)cc(C(F)(F)F)c1)(C1(F)CC1)C(C#N)=C(N)O2` (racemic) [Compound 2.404], with “good or very good”.
